Test results: patent US20100035926A1, “PYRAZOLE DERIVATIVES AS NON-STEROIDAL GLUCOCORTICOID RECEPTOR LIGANDS” (priority 2006, published 2010)
Like-named read-outs stand apart in the source and are kept apart here.

Experiments:
[1] = biological target: T1, Progesterone Receptor (Homo sapiens, UniProt P06401); assay: Assay for Progesterone Receptor Agonist Activity (CV-1 cells, PRb-BacMam, MMTV-BacMam); assay type: cell-based; conditions: at least once in this assay, read-out: progesterone receptor agonist pEC50 (converted)
T1 construct: expressed in transfected cells; host or cells: CV-1 cells transduced with PRb-BacMam and MMTV-BacMam
T1 sequence (P06401 1-933): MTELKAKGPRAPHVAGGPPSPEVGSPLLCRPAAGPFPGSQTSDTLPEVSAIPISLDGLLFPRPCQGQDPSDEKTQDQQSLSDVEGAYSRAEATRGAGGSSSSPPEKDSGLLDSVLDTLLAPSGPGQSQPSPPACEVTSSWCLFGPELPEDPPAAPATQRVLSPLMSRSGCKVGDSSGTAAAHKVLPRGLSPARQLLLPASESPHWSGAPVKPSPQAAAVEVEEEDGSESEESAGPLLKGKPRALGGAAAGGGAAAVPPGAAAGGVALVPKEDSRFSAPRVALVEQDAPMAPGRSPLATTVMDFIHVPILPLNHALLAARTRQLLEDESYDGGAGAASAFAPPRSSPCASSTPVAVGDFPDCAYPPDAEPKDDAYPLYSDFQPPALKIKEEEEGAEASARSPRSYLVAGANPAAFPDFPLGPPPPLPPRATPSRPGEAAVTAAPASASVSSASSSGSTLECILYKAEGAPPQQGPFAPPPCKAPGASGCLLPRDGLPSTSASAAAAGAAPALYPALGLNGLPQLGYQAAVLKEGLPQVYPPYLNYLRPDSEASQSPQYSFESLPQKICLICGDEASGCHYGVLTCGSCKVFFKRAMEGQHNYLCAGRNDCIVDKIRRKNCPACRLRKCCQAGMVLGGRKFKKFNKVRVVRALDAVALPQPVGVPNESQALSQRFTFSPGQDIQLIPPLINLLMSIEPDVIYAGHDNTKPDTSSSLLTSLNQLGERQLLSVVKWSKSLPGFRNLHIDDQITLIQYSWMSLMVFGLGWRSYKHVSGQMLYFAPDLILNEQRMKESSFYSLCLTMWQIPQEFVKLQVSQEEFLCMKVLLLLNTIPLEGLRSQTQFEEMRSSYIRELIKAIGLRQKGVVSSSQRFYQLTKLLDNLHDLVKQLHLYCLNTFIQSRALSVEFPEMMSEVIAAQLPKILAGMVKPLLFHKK
Method: A T225 flask of CV-1 cells at a density of 80% confluency was washed with PBS, detached from the flask using 0.25% trypsin and counted using a Sysmex KX-21N. Cells were diluted in DMEM containing 10% Hyclone, 2 mM […] and 1% Pen/Strep at 140 cells/μl and transduced with 10% PRb-BacMam and 10% MMTV-BacMam. […] of suspension cells were dispensed to each well of white Nunc 384-well plates, containing compounds at the required concentration. After 24 hr 10 μl of Steadylite were added to each well of the plates. Plates were incubated in the dark for 10 min before reading them on a Viewlux reader. Dose response curves were constructed from which pEC50 values were estimated.

[2] = biological target: T2, glucocorticoid receptor (Homo sapiens, UniProt P04150); assay: Glucocorticoid Receptor Binding Assay (fluorescence polarisation, displacement of Alexa 555 labelled dexamethasone derivative); conditions: at least once in this assay; read-out: glucocorticoid binding pIC50 (converted)
T2 construct: a partially purified full length glucocorticoid receptor
T2 sequence (P04150 1-777): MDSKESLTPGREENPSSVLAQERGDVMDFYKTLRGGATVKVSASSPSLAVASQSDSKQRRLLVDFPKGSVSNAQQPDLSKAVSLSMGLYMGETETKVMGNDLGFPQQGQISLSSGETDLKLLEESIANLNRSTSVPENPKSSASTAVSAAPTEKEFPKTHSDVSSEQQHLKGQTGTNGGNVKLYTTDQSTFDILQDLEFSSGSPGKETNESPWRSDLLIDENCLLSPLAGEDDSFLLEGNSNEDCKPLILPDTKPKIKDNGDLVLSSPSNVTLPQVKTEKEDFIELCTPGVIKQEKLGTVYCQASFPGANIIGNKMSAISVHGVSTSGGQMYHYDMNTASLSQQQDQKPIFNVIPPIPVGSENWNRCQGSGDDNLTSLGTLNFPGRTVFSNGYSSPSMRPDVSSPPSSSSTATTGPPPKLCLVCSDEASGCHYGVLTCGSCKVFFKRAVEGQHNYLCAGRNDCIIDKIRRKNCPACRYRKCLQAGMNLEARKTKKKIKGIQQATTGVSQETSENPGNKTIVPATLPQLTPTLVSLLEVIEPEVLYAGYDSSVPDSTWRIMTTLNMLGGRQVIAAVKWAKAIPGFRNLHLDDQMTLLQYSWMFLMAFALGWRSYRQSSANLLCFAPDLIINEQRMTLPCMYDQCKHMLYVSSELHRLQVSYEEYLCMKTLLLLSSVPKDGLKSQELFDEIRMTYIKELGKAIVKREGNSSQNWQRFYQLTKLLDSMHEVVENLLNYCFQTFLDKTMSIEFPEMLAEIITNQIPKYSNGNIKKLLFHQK
Method: Compounds were solvated and diluted in DMSO, and transferred directly into assay plates. Fluorescent dexamethasone and a partially purified full length glucocorticoid receptor were added to the plates, together with buffer components to stabilise the GR protein and incubated at room temperature for 2 hr in the dark. Binding of each compound was assessed by analysing the displacement of fluorescent ligand by measuring the decrease in fluorescence polarisation signal from the mixture.

[3] = biological target: T3, GR (Homo sapiens, UniProt P04150); assay: GR Functional Assay - NFκB Assay (A549 SPAP cells, TNFα stimulated); assay type: cell-based; conditions: for Emax: agonists, read-out: average maximum asymptote in the NFkB assay
T3 construct: endogenous in cells; host or cells: A549 (human lung carcinoma, ECACC No. 86012804), stably transfected with reporter plasmids only
T3 sequence (P04150 1-777): T2 sequence (P04150 1-777)
Method: Stimulation of the cell line with TNFα results in intracellular signal transduction and ultimately translocation of NFκB into the nucleus. This activates the inserted DNA sequence resulting in transcription of the integrated SPAP gene, which is quantified using a calorimetric assay. […] The stably transfected cell line was grown as a monolayer in DMEM supplemented with FCS-HI (10%), Non-essential amino acids (1%), L-Glutamine (2 mM), Pen/Strep (1%) and Geneticin (50 mg/ml).
A 70% confluent T225 flask of A549 SPAP cells was harvested by centrifugation for 5 mins at 200 g, resuspended in assay buffer (DMEM supplemented with 10% FCS 2×HI, 2 mM L-Glutamine, 1% Pen/Strep and Non essential amino acids) and diluted to 0.16×10^6/ml. 60 μl of cell solution was dispensed to each well of clear Nunc 384-well plates, containing compound at the required concentration. […] Plates were equilibrated to room temperature for 1 hr prior to the addition of 25 μl of pNPP buffer (1M Diethanolamine pH 9.8, 0.5 mM MgCl2, 0.28M NaCl, 2 mg/ml pNPP) to each well of assay plates.

[4] = biological target: T3, GR; assay: GR Agonist Assay - MMTV Assay (A549 MMTV cells, renilla luciferase reporter); assay type: cell-based; conditions: 6 h, agonists, read-out: average maximum asymptote in the MMTV agonist assay
Method: Stimulation of the cell line with GR agonists results in intracellular signal transduction and ultimately translocation of GR into the nucleus. This activates the inserted DNA sequence resulting in transcription of the integrated luciferase gene, which is quantified using a light emission. The stably transfected cell line was grown as a monolayer in DMEM supplemented with FCS-HI (10%), Non-essential amino acids (1%), L-Glutamine (2 mM), Pen/Strep (1%) and Geneticin (50 mg/ml).
A 90% confluent T175 flask of A549 MMTV cells was harvested by centrifugation for 5 min at 200 g, resuspended in assay buffer (DMEM supplemented with 10% FCS 2×HI, 2 mM Glutamax, Non essential amino acids and 25 mM HEPES) and diluted to 0.1×10^6/ml. 70 μl of cell solution was dispensed to each well of white Nunc 384-well plates, containing compound at the required concentration. […] The plates were covered to protect the reagents from light, and then incubated at room temperature for approximately 15 mins before reading them on a Viewlux.

[5] = at least once in the NFkB assay, A549 SPAP cells, read-out: pIC50 in the NFkB assay (converted)
[6] = at least once, examples listed as agonists in NFkB and MMTV assays, read-out: potency pIC50 in the NFKB assay (converted)

Compound | EC50 [1] [nM] | IC50 [2] [nM] | Emax ([3]; A549 SPAP cells) [%] | IC50 [3, 5] [nM] | IC50 [3, 6] [nM] | Emax [4] [%]
CN(CC(O)(CNC(=O)c1cnn(-c2ccc(F)cc2)c1N)C(F)(F)F)C(=O)c1ccccc1F (racemic) [Example 6 (racemic), 5-amino-1-(4-fluorophenyl)-N-(3,3,3-trifluoro-2-{[[(2-fluorophenyl)car-bonyl](methyl)amino]methyl}-2-hydroxypropyl)-1H-pyrazole-4-carboxamide] | > 1000 | < 1000 | ≥ 40 | < 1000 | < 316 | ≥ 40
CN(CC(O)(CNC(=O)c1cnn(-c2ccc(F)cc2)c1N)C(F)(F)F)C(=O)c1ccccc1Cl (racemic) [Example 7 (racemic), 5-amino-N-(2-{[[(2-chlorophenyl)car-bonyl](methyl)amino]methyl}-3,3,3-trifluoro-2-hydroxypropyl)-1-(4-fluorophenyl)-1H-pyrazole-4-carboxamide] | > 1000 | < 1000 | ≥ 40 | < 1000 | < 316 | ≥ 40
Nc1c(C(=O)NCC(O)(CN(CCF)C(=O)c2ccccc2)C(F)(F)F)cnn1-c1ccc(F)cc1 (single isomer, unassigned) [Example 1 Enantiomer 1, 5-Amino-1-(4-fluorophenyl)-N-(3,3,3-trifluoro-2-{[(2-fluoroethyl)(phenylcarbonyl)amino]methyl}-2-hydroxypropyl)-1H-pyrazole-4-carboxamide] | > 1000 | < 1000 |  | < 1000 |  | 
CCN(CC(O)(CNC(=O)c1cnn(-c2ccc(F)cc2)c1N)C(F)(F)F)C(=O)c1ccccc1 (single isomer, unassigned) [Example 14 Enantiomer 1, 5-amino-N-(2-{[ethyl(phenylcar-bonyl)amino]methyl}-3,3,3-trifluoro-2-hydroxypropyl)-1-(4-fluorophenyl)-1H-pyrazole-4-carboxamide] | > 1000 | < 1000 |  |  |  | 

More lines, now with the values ahead:

EC50 [1] [nM] | IC50 [2] [nM] | Emax ([3]; A549 SPAP cells) [%] | IC50 [3, 5] [nM] | IC50 [3, 6] [nM] | Emax [4] [%] | Compound
> 1000 |  |  |  |  |  | CCN(CC(O)(CNC(=O)c1cnn(-c2ccc(F)cc2)c1N)C(F)(F)F)C(=O)c1ncccc1Cl (racemic) [Example 3 (racemic), N-[2-[({[5-Amino-1-(4-fluorophenyl)-1H-pyrazol-4-yl]carbonyl]amino)methyl]-3,3,3-trifluoro-2-hydroxypropyl}-3-chloro-N-ethyl-2-Pyridinecarboxamide]
> 1000 | < 1000 | ≥ 40 | < 1000 | < 316 | ≥ 40 | CCN(CC(O)(CNC(=O)c1cnn(-c2ccc(F)cc2)c1N)C(F)(F)F)C(=O)c1ccccc1F (racemic) [Example 4 (racemic), 5-Amino-N-[2-({ethyl[(2-fluorophenyl)carbonyl]amino}methyl)-3,3,3-trifluoro-2-hydroxypropyl]-1-(4-fluorophenyl)-1H-pyrazole-4-carboxamide]
> 1000 |  | ≥ 40 | < 1000 | < 316 | ≥ 40 | CCN(CC(O)(CNC(=O)c1cnn(-c2ccc(F)cc2)c1N)C(F)(F)F)C(=O)c1cccc2cccnc12 (racemic) [Example 8 (racemic), N-{2-[({[5-amino-1-(4-fluorophenyl)-1H-pyrazol-4-yl]carbonyl}amino)methyl]-3,3,3-trifluoro-2-hydroxypropyl}-N-ethyl-8-quinolinecarboxamide]
> 1000 |  |  |  |  |  | CCN(CC(O)(CNC(=O)c1cnn(-c2ccc(F)cc2)c1N)C(F)(F)F)C(=O)c1ccccc1Cl (racemic) [Example 16 (racemic), 5-amino-N-(2-{[[(2-chlorophenyl)car-bonyl](ethyl)amino]methyl}-3,3,3-trifluoro-2-hydroxypropyl)-1-(4-fluorophenyl)-1H-pyrazole-4-carboxamide]
> 1000 |  |  | < 1000 |  |  | CCN(CC(O)(CNC(=O)c1cnn(-c2ccc(F)cc2)c1N)C(F)(F)F)C(=O)c1ccccc1F (single isomer, unassigned) [Example 4 Enantiomer 1, 5-Amino-N-[2-({ethyl[(2-fluorophenyl)carbonyl]amino}methyl)-3,3,3-trifluoro-2-hydroxypropyl]-1-(4-fluorophenyl)-1H-pyrazole-4-carboxamide]
> 1000 |  |  |  |  |  | CCN(CC(O)(CNC(=O)c1cnn(-c2ccc(F)cc2)c1N)C(F)(F)F)C(=O)c1ccccc1Cl (single isomer, unassigned) [Example 16 Enantiomer 1, 5-amino-N-(2-{[[(2-chlorophenyl)car-bonyl](ethyl)amino]methyl}-3,3,3-trifluoro-2-hydroxypropyl)-1-(4-fluorophenyl)-1H-pyrazole-4-carboxamide]
